Counter-ions that a name gives are not always drawn. Like-named read-outs stand apart in the source and are kept apart here.
Experiments:
[1] = tested on: K. pneumoniae expressing the Class A Extended Spectrum Beta-Lactamase (ESBL) CTX-M-15; test: In vitro antibacterial assay of β-lactamase inhibition (broth microdilution MIC), K. pneumoniae CTX-M-15; format: cell-based; settings: in presence of Ceftazidime 8 μg/ml (Examples 1-56)
Procedure, shortened: (§1)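 Each strain, maintained under 50 μg/mL ampicillin selection, was exposed to twofold compound dilutions (final range 8 μg/mL to 0.015 μg/ml) combined with a β-lactam antibiotic in cation-adjusted Mueller Hinton broth. The MIC was judged visually following overnight (16-20 h) incubation at 37° C.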

[2] = biological target: T1, VIM-2 metallo β-lactamase (Pseudomonas aeruginosa, UniProt Q9K2N0); test: β-lactamase enzyme inhibition assay (nitrocefin substrate), VIM-2; format: biochemical
T1 construct: made in house
Description: Isolation of β-lactamases. For SHV-5, p99 AmpC, KPC-2 and CTX-M15 β-lactamases, E. coli BL21(DE3) bacterial cells carrying expression plasmids (expressed as native untagged proteins) for the individual β-lactamases were grown in 1 L of Superbroth (Teknova Inc. Hollister, Calif.) supplemented with 100 μg/ml kanamycin and 1×5052 (0.5% glycerol, 0.05% glucose and 0.2% α-lactose) at 35° C. for 18-20 hours. Cells were harvested by centrifugation (4,000×g, 4° C., 20 min), and resuspended in 50 ml of 10 mM HEPES pH 7.5 (1/20 of the initial volume). The cells were lysed by sonication (5 pulses of 45 seconds) at 45 W on ice. The lysates were clarified by centrifugation at 10,000×g for 40 minutes at 4° C. Samples were diluted 5-fold in 50 mM sodium acetate pH 5.0, stored overnight at 4° C., after which they were centrifuged at 10,000×g for 30 minutes to clarify, and filtered through 0.45 μm filters. The samples were loaded onto a 5 ml Capto S sepharose cation exchange column (GE Healthcare) pre-equilibrated with 50 mM sodium acetate pH 5.0. The column was washed with 5 column volumes of 50 mM sodium acetate pH 5.0 to wash out unbound protein and a linear gradient of NaCl (0 to 500 mM) was used to elute the protein (over 16 CV) from the column. Fractions were assayed for β-lactamase activity using Centa (Calbiochem, Gibbstown, N.J.) as a reporter β-lactamase substrate for activity in the isolated fractions. Active fractions were pooled, concentrated and further purified by gel filtration chromatography on a Superdex 75 prep grade gel filtration column (GE Healthcare, Piscataway, N.J.) pre-equilibrated in 50 mM Hepes pH 7.5, 150 mM NaCl. Active fractions were pooled concentrated, quantitated by BCA protein determination (Thermo Scientific, Rockford, Ill.), and frozen at −80° C. in 20% glycerol until use.
For VIM-2 metallo (β-lactamase, the procedure was identical with the following exceptions: 1) the protein was not pH adjusted to pH 5 with 50 mM sodium acetate, 2) the chromatography step was changed to a 5 ml Q sepharose anion exchange column pre-equilibrated with 50 mM Hepes pH 7.5, and 3) elution of the protein was achieved by a linear gradient of NaCl (0-600 mM). Finally, the VIM-2 purification required a second run (3rd step) on the Q sepharose anion exchange column to achieve acceptable purity (>90%).
(§2) β-lactamase Inhibition. To determine the level of inhibition of β-lactamase enzymes, compounds were diluted in PBS at pH 7.0 to yield concentrations between 100 and 0.005 μM in microtiter plates. An equal volume of diluted enzyme stock was added, and the plates were incubated at 37° C. for 10 min. Nitrocefin solution was then dispensed as substrate into each well at a final concentration of 100 μM, and the plates were immediately read with the kinetic program at 486 nm for 10 min on the SPECTRAMAX® Plus^384 (high-throughput microplate spectrophotometer; Molecular Devices Corp., Sunnyvale, Calif.). Maximum rates of metabolism were then compared to those in control wells (without inhibitors), and percentages of enzyme inhibition were calculated for each concentration of inhibitor. The concentration of inhibitor needed to reduce the initial rate of hydrolysis of substrate by 50% (IC50) was calculated as the residual activity of β-lactamase at 486 nm using the SoftMax Pro 5.0 software (Molecular Devices Corp.).
Using the methodology described above, examples of the current invention were evaluated for their ability to inhibit β-lactamase enzymes. The results of these assays are summarized in Table 2 for representative enzymes across different subtypes (note SHV-5 and CTXM-15 exemplify different subclasses of Ambler Class A Extended Spectrum Beta Lactamases, KPC-2 exemplifies Class A carbapenemases, P99 represents chromosomal Class C AmpC, VIM-2 exemplifies subclass B1 of metallo-β-lactamases, and OXA-23 represents chromosome-encoded Class D oxacillin-hydrolyzing β-lactamases), NT=not tested.

[3] = biological target: T2, CTX-M15 β-lactamase (Escherichia coli, UniProt Q9EXV5); test: β-lactamase enzyme inhibition assay (nitrocefin substrate), CTXM-15; format: biochemical
T2 construct: expressed as native untagged proteins; made in house; host or cells: E. coli BL21(DE3)
Procedure, shortened: (§3)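 Enzyme was first mixed with serially diluted compound (100 to 0.005 μM) in PBS pH 7.0 and held 10 min at 37 °C. Next, nitrocefin was dispensed to 100 μM final, and hydrolysis was followed at 486 nm for 10 min. Percent inhibition was then calculated from maximum rates and fitted to an IC50.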

[4] = tested on: P. aeruginosa expressing the Class B metallo β-lactamase VIM-2; test: In vitro antibacterial assay of β-lactamase inhibition (broth microdilution MIC), P. aeruginosa VIM-2; format: cell-based; settings: in presence of Ceftazidime 16 μg/mL (Examples 1-56)
Procedure, shortened: as §1

[5] = biological target: T3, KPC-2 β-lactamase (Klebsiella pneumoniae, UniProt Q9F663); test: β-lactamase enzyme inhibition assay (nitrocefin substrate), KPC-2; format: biochemical
T3 construct: expressed as native untagged proteins; made in house; host or cells: E. coli BL21(DE3)
Procedure, shortened: as §3

[6] = tested on: E. coli expressing the Class A ESBL SHV-5; test: In vitro antibacterial assay of β-lactamase inhibition (broth microdilution MIC), E. coli SHV-5; format: cell-based; settings: in presence of Ceftazidime 8 μg/ml (Examples 1-56)
Procedure, shortened: as §1

[7] = tested on: E. cloacae expressing the Class C P99+; test: In vitro antibacterial assay of β-lactamase inhibition (broth microdilution MIC), E. cloacae P99+; format: cell-based; settings: in presence of Ceftazidime 8 μg/ml (Examples 1-56)
Procedure, shortened: as §1

[8] = tested on: K. pneumoniae expressing the Class A carbapenemase KPC-2; test: microbe, parasite or virus in culture; format: cell-based; settings: in presence of Ceftazidime 8 μg/ml (Examples 1-56)
Procedure, shortened: as §1

[9] = biological target: T4, p99 AmpC β-lactamase (Enterobacter cloacae, UniProt P05364); test: β-lactamase enzyme inhibition assay (nitrocefin substrate), P99 AmpC; format: biochemical
T4 construct: expressed as native untagged proteins; made in house; host or cells: E. coli BL21(DE3)
Procedure, shortened: as §3

[10] = biological target: T5, OXA-23 β-lactamase (Acinetobacter baumannii, UniProt Q9L4P2); test: β-lactamase enzyme inhibition assay (nitrocefin substrate), OXA-23 crude extract; format: biochemical
T5 construct: crude β-lactamase extracts were prepared from 20 ml overnight cultures; endogenous in cells; host or cells: Acinetobacter baumannii cells containing OXA-23 (crude freeze-thaw extract)
Description: For OXA-23 β-lactamase, crude β-lactamase extracts were prepared from 20 ml overnight cultures with shaking. Acenitobacter baumanni cells containing OXA-23 were further diluted 10-fold and grown to mid-log phase (OD at 600 nm, 0.5-0.8) in Mueller-Hinton II (MH-II) broth at 37° C. The cells were pelleted at 5000 g, washed and resuspended in 2 mL PBS pH 7.0. The β-lactamases were extracted by four cycles of freezing and thawing followed by centrifugation. β-lactamase activity in the extracts was measured with the chromogenic cephalosporin nitrocefin. The amount of protein in each β-lactamase preparation was determined by the bicinchoninic acid (BCA) assay.
as §2

[11] = biological target: T6, SHV-5 β-lactamase (Klebsiella pneumoniae, UniProt P0A3M1); test: β-lactamase enzyme inhibition assay (nitrocefin substrate), SHV-5; format: biochemical
T6 construct: expressed as native untagged proteins; made in house; host or cells: E. coli BL21(DE3)
Procedure, shortened: as §3

[12] = nitrocefin 100 μM, 37° C., PBS pH 7.0, read-out: VIM-2 IC50
[13] = nitrocefin 100 μM, 37° C., PBS pH 7.0, read-out: P99 AmpC IC50
[14] = nitrocefin 100 μM, 37° C., PBS pH 7.0, read-out: OXA-23 IC50

T2 sequence (Q9EXV5 entry or part of it): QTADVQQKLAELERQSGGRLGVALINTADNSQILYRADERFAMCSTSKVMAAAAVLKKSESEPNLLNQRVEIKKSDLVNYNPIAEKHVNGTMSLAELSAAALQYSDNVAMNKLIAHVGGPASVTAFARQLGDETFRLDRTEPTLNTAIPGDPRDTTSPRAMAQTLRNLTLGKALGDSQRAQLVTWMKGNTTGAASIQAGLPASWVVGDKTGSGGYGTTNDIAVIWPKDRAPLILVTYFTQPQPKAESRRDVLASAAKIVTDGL
T3 sequence (Q9F663 25-293 limits assumed): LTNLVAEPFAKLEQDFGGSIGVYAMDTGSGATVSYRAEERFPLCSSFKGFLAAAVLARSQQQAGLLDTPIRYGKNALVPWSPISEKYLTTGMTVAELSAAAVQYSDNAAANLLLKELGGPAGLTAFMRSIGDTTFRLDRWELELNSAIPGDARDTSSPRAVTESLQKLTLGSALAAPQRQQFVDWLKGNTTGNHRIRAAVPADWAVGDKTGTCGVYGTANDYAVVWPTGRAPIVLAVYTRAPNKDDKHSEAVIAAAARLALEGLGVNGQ
T6 sequence (P0A3M1 22-286): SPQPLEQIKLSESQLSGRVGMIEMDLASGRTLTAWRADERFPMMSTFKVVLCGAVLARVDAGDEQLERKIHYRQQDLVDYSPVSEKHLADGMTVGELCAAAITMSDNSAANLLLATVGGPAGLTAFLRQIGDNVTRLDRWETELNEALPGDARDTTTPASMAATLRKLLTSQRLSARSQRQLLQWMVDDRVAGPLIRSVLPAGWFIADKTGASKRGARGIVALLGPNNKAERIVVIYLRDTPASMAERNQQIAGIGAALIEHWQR
T5 sequence (Q9L4P2 18-273): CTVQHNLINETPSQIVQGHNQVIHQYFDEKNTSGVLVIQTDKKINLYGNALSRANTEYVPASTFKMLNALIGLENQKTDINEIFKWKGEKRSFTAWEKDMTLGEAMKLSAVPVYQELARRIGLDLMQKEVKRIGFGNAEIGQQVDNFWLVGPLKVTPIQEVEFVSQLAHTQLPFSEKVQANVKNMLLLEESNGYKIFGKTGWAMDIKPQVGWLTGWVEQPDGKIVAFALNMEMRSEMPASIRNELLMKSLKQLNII
T4 sequence (P05364 21-381): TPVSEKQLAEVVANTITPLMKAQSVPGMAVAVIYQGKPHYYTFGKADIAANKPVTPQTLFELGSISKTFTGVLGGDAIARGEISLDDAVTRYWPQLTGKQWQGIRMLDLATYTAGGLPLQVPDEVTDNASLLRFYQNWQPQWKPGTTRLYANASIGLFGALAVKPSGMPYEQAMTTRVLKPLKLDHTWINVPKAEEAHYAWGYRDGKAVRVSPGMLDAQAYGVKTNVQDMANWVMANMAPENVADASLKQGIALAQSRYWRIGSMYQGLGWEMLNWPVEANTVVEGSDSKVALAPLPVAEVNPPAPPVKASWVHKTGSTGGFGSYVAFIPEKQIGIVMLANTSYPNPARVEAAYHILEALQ

| SMILES | MIC of example compound, K. pneumoniae CTX-M-15 [1] [µg/mL] | IC50 [2, 12] [nM] | IC50 [3] [nM] | MIC of example compound, P. aeruginosa VIM-2 [4] [µg/mL] | IC50 [5] [nM] | MIC of example compound, E. coli SHV-5 [6] [µg/mL] | MIC of example compound, E. cloacae P99+ [7] [µg/mL] | MIC of example compound, K. pneumoniae KPC-2 [8] [µg/mL] | IC50 [9, 13] [nM] | IC50 [10, 14] [nM] | IC50 [11] [nM] | IC50 [2] [nM] | IC50 [9] [nM] | IC50 [10] [nM] |
| --- | --- | --- | --- | --- | --- | --- | --- | --- | --- | --- | --- | --- | --- | --- |
| CN(C)Cc1ccc(C(=O)N[C@@H](Cc2cccc(C(=O)O)c2O)B(O)O)cc1 [Example 4, 2(R)-3-[2-(4-(N,N-Dimethylaminomethyl)benzoylamino)-2-borono-ethyl]-2-hydroxy-benzoic acid formate salt] | 0.25 | > 1000 | 3 | >8 | 4 | 1 | 2 | 0.06 | 3 | 99 | 0.6 | – | – | – |
| Cl.O=C(N[C@@H](Cc1cccc(C(=O)O)c1O)B(O)O)c1ccc(N2CCNCC2)nc1 [Example 9, (2R)-3-{2-[(2-(1-piperazinyl)-pyridine-5-carbonyl)-amino]-2-borono-ethyl}-2-hydroxy-benzoic acid hydrochloride] | 1 | 242 | 83 | >8 | 6 | 4 | 0.25 | <0.01 | 2 | > 1000 | > 1000 | – | – | – |
| CC(=O)Nc1ccc(C(=O)N[C@@H](Cc2cccc(C(=O)O)c2O)B(O)O)cn1 [Example 10, (2R)-3-{2-[(2-(acetylamino)-pyridine-5-carbonyl)-amino]-2-borono-ethyl}-2-hydroxy-benzoic acid] | 0.25 | 680 | 3 | >8 | 4 | 1 | 0.5 | 0.01 | 3 | 580 | 319 | – | – | – |
| CNCc1ccc(C(=O)N[C@@H](Cc2cccc(C(=O)O)c2O)B(O)O)cc1.Cl [Example 11, (1R)-[4-(methylamino)methyl]-benzoylamino-(3-carboxy-2-hydroxy)benzyl-methyl boronic acid hydrochloride] | 1 | 57 | 4 | 8 | 4 | 8 | 0.25 | <0.01 | 1 | > 1000 | > 1000 | – | – | – |
| Cl.O=C(N[C@@H](Cc1cccc(C(=O)O)c1O)B(O)O)c1ccc(CN2CCCC(C(=O)O)C2)cc1 (stereo partly drawn) [Example 12, (1R)-[4-(piperidine-3-carboxylic acid)-methyl]-benzoylamino-(3-carboxy-2-hydroxy)benzyl-methyl boronic acid hydrochloride] | 1 | 930 | 3 | >8 | 11 | 4 | 2 | 0.03 | 900 | > 1000 | 870 | – | – | – |
| CC[N+](CC)(CC)Cc1ccc(C(=O)N[C@@H](Cc2cccc(C(=O)O)c2O)B(O)O)cc1 [Example 13, (1R)-(4-(triethylammonium)methyl)-benzoylamino-(3-carboxy-2-hydroxy)benzyl-methyl boronic acid bromide] | >8 | – | 14 | >8 | 3 | >8 | >8 | 0.25 | – | – | > 1000 | 340 | 4 | > 1000 |
| O=C(N[C@@H](Cc1cccc(C(=O)O)c1O)B(O)O)c1ccc(C[n+]2ccccc2)cc1 [Example 14, (1R)-[4-(pyridinium)-methyl]-benzoylamino-(3-carboxy-2-hydroxy)benzyl-methyl boronic acid chloride] | >8 | – | 1 | >8 | 21 | >8 | 0.5 | 0.01 | – | – | > 1000 | 360 | 29 | > 1000 |
| Cl.NCCNCc1ccc(C(=O)N[C@@H](Cc2cccc(C(=O)O)c2O)B(O)O)cc1 [Example 15, (1R)-[4-(2-amino-ethylamino)-methyl]-benzoylamino-(3-carboxy-2-hydroxy)benzyl-methyl boronic acid hydrochloride] | 0.25 | 47 | 7 | >8 | 18 | 4 | 4 | 0.01 | 5 | > 1000 | > 1000 | – | – | – |

Source: patent publication US20100292185A1, “BETA-LACTAMASE INHIBITORS” (priority 2009, published 2010)
